Results taken from patent US20240382482A1, “PLASMA KALLIKREIN INHIBITORS” (TAKEDA PHARMACEUTICAL COMPANY LIMITED, priority 2021, published 2024).

Key:
[1] = target: human activated kallikrein enzyme (Homo sapiens, UniProt P03952); experiment: Inhibition of human activated kallikrein enzyme, fluorogenic peptide substrate assay (500 pM enzyme format); type: biochemical; settings: 500 pM activated kallikrein, 300 μM PFR-AMC substrate, 30 min preincubation, 10 min reaction, room temperature; read-out: Primary Dose Response Assay: Average EC50
Sequence of human activated kallikrein enzyme (P03952 391-638 limits assumed): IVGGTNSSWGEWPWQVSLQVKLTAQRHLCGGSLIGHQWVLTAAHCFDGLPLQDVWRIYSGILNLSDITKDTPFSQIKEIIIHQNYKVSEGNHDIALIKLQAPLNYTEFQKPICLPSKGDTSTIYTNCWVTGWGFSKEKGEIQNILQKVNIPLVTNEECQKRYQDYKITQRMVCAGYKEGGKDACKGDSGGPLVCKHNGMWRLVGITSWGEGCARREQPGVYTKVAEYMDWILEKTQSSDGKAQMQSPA
Sequence of human activated kallikrein enzyme (P03952 20-390 partner limits assumed): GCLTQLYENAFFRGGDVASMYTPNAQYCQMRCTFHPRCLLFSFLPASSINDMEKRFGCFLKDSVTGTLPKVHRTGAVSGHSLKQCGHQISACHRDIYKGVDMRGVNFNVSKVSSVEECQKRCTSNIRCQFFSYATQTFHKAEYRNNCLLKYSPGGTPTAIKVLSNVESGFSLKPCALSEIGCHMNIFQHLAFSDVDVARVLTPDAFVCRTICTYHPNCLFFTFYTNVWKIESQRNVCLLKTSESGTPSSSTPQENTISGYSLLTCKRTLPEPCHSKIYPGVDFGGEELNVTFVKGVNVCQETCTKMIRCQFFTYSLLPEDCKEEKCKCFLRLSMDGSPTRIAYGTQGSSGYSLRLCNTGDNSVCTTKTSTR
Outline: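 500 pM enzyme preincubated 30 min at room temperature with inhibitor in 20 mM Tris pH 7.5, 150 mM NaCl, 1 mM EDTA, 0.1% PEG-400, 0.1% Triton X-100. Reaction started with 300 μM PFR-AMC and run 10 min at room temperature. AMC fluorescence read at ex 380/em 460 nm, and EC50 values reported as ranges.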

plasma kallikrein = target: T1, plasma kallikrein (Homo sapiens, UniProt P03952); experiment: Neat human plasma assay (fluorogenic peptide), contact pathway-activated plasma; type: biochemical; settings: sodium citrate human plasma (78% final), 10 nM human FXIIa, 100 μM PFR-AMC, room temperature
T1 construct: added to sodium citrate collected human or rat plasma in a 96-well microplate; from tissue
T1 sequence (P03952 391-638 limits assumed): as the sequence (P03952 391-638 limits assumed) above
T1 sequence (P03952 20-390 partner limits assumed): as the sequence (P03952 20-390 partner limits assumed) above
Method: To analyze inhibition of plasma kallikrein in an ex vivo setting, the potency of compounds was measure in contact pathway-activated plasma assays. In a fluorogenic peptide substrate assay, test compounds dissolved in DMSO were added to sodium citrate collected human or rat plasma in a 96-well microplate. Alternatively, citrated plasma was collected from rats administered the compounds orally or by IV. 10 nM of human FXIIa (Enzyme Research Laboratories) diluted in PKa buffer (20 mM Tris-HCl, pH 7.5, 150 mM NaCl, 1 mM EDTA, 0.1% PEG-8000, and 0.1% Triton X-100) was added to the plasma, followed by the 100 μM of the profluorescent, synthetic plasma kallikrein substrate PFR-AMC (also diluted in PKa buffer). Final plasma concentration in the reaction was 78%. Fluorescence was immediately monitored by excitation/emission wavelengths of 360 nm/480 nm respectively over a period of 5 minutes in a microplate reader. The resulting linear increase in fluorescence emission (reflecting PKa proteolysis of PFR-AMC substrate) was fit to extract a proteolytic rate (fluorescent units over time), and this rate was subsequently plotted against compound inhibitor concentration. Resulting plots were fit to a standard 4-parameter IC50/IC90 equation to determine min/max values, IC50/90, and slope. All experimental steps were performed at room temperature.

Cc1cc(N)nc(C)c1CNc1cc(OCc2cn3cc(C4CC4)cc(CO)c3n2)ncn1 [Example 113, (2-(((6-(((6-amino-2,4-dimethylpyridin-3-yl)methyl)amino)pyrimidin-4-yl)oxy)methyl)-6-cyclopropylimidazo[1,2-a]pyridin-8-yl)methanol]
EC50 [1]: ≤ 0.005 µM
IC90 (plasma kallikrein): 5 to 25 µM
